From US11439641B2, “Pyrimidine JAK inhibitors for the treatment of skin diseases” (THERAVANCE BIOPHARMA R&D IP, LLC, priority 2019, dated 2022)

Columns and labels:
[1] = test system: IL-2 stimulated pSTAT5 in Tall-1 T cells; assay: Inhibition of IL-2 Stimulated pSTAT5 in Tall-1 T Cells; format: cell-based; settings: Tall-1 human T cell line, IL-2 300 ng/mL, AlphaLisa
How it was run: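 Cells preincubated with compound 1 hour at 37° C, then stimulated with IL-2 (final 300 ng/mL) for 30 minutes. After lysis, pSTAT5 (Tyr694/699) read by AlphaLISA luminescence. IC50 from inhibition curves, reported as pIC50 (mean±SD).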

JAK3 = JAK3 (Homo sapiens (Human), UniProt P52333); assay: Biochemical JAK and Tyk2 Kinase Assays (LanthaScreen), JAK3; settings: 1.6 μM ATP (Km), pIC50 converted to pKi by Cheng-Prusoff
JAK2 = JAK2 (Homo sapiens (Human), UniProt O60674); assay: Biochemical JAK and Tyk2 Kinase Assays (LanthaScreen), JAK2; settings: 3 μM ATP (Km); pIC50 converted to pKi by Cheng-Prusoff
JAK1 = JAK1 (Homo sapiens (Human), UniProt P23458); assay: Biochemical JAK and Tyk2 Kinase Assays (LanthaScreen), JAK1; settings: 25 μM ATP (Km), pIC50 converted to pKi by Cheng-Prusoff
JAK1, sequence (P23458 whole entry): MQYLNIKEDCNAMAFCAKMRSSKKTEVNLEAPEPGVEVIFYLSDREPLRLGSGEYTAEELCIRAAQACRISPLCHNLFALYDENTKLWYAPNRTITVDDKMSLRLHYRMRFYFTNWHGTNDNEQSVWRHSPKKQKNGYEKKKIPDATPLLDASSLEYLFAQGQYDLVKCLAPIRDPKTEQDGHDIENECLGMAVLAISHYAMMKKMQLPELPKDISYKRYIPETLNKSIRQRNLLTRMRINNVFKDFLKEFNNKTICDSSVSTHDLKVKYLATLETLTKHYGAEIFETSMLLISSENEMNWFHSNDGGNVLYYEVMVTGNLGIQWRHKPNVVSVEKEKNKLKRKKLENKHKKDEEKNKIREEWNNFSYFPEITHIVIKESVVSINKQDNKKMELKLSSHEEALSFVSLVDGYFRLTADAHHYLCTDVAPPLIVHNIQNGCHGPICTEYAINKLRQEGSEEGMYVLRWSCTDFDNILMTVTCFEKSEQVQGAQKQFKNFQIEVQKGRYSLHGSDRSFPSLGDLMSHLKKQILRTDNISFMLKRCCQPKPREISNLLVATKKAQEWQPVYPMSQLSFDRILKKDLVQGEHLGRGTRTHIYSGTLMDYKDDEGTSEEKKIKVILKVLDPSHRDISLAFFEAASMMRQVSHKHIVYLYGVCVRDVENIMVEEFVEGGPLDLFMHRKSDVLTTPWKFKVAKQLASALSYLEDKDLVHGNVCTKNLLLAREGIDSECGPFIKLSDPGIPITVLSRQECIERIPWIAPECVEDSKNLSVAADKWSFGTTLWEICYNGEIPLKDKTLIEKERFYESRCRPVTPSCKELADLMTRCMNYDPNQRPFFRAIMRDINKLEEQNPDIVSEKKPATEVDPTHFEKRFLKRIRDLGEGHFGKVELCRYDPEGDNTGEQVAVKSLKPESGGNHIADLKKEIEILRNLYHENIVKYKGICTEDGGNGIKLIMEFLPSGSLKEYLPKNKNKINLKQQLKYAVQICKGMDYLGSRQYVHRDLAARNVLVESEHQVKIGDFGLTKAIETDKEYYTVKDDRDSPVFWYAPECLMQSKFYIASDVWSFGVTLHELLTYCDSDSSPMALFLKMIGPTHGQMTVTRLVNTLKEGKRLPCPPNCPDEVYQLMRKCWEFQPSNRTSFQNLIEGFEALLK

JAK3, sequence (P52333 whole entry): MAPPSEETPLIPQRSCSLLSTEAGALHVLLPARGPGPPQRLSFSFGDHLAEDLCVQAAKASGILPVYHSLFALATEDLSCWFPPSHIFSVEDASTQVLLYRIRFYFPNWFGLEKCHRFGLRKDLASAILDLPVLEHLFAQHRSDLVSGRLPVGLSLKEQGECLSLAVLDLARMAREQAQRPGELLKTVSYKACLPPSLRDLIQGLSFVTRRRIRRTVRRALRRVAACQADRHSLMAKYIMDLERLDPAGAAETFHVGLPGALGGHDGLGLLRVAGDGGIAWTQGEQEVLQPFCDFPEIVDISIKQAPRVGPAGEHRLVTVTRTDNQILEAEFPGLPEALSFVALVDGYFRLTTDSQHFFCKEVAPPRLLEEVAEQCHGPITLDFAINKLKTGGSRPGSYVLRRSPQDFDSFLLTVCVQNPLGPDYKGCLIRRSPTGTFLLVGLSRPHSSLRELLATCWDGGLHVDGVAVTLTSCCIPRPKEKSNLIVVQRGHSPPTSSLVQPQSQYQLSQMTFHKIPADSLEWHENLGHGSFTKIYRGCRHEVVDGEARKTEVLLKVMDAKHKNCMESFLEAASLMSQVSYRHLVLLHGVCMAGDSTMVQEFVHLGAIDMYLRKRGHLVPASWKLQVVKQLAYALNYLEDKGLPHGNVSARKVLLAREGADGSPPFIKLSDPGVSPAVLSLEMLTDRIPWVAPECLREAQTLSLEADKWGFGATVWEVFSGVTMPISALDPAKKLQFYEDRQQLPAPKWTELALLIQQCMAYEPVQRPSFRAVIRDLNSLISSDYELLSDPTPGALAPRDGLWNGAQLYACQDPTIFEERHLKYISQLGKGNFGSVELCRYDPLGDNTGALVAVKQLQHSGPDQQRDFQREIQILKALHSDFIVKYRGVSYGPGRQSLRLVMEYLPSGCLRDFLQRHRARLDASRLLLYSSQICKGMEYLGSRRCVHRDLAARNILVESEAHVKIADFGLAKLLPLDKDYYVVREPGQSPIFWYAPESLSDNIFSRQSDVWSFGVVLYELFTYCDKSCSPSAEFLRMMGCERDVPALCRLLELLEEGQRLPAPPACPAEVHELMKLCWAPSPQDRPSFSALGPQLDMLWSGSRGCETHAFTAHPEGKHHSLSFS
JAK2, sequence (O60674 whole entry): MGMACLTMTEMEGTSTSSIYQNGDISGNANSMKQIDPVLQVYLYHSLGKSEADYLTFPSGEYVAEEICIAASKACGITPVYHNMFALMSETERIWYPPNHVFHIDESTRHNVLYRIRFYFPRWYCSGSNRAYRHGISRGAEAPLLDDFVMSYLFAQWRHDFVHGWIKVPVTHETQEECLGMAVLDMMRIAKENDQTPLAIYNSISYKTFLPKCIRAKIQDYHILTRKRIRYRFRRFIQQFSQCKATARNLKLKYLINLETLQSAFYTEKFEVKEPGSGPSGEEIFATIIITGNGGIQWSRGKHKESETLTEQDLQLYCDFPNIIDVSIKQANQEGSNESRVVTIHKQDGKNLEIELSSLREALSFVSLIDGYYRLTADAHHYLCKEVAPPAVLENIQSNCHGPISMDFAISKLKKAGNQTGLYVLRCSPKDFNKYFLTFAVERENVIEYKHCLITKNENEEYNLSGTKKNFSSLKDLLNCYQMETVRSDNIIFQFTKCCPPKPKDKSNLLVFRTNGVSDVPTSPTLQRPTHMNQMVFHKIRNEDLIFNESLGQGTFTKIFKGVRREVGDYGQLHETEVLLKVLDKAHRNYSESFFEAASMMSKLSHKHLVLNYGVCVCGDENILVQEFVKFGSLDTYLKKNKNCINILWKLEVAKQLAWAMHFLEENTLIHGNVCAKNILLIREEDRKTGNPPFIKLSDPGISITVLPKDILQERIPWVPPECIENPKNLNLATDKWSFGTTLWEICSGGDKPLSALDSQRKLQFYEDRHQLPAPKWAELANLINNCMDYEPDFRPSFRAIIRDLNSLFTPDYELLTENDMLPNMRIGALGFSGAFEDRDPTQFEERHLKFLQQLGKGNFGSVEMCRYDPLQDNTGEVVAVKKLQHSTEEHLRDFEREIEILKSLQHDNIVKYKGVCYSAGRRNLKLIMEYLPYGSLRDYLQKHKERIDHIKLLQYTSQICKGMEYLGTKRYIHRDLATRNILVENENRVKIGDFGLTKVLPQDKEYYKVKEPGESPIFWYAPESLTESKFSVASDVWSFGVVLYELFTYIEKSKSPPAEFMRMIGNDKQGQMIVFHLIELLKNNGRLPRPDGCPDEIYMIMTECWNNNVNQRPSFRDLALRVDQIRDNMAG

Row | Structure (SMILES) | Tall-1 IL2 pSTAT5 (pIC50) [1] | JAK 3 (pKi) (JAK3) | JAK 2 (pKi) (JAK2) | JAK 1 (pKi) (JAK1) | IC50 ([1]; read-out: Tall-1 IL2 pSTAT5 (pIC50) (converted)) [nM] | Ki (JAK3; read-out: JAK 3 (pKi) (converted)) [nM] | Ki (JAK1; read-out: JAK 1 (pKi) (converted)) [nM]
1 | CCS(=O)(=O)N1[C@@H]2CCC[C@H]1C[C@H](N(C)c1nc(COC3COC3)c(F)c(Nc3cc(C)[nH]n3)n1)C2 [Compound 41, N2-((1R,3s,5S)-9-(ethylsulfonyl)-9-azabicyclo[3.3.1]nonan-3-yl)-5-fluoro-N2-methyl-N4-(5-methyl-1H-pyrazol-3-yl)-6-((oxetan-3-yloxy)methyl)pyrimidine-2,4-diamine] | A (A represents a pIC50 value ≥8.0) | B (B represents a pKi value between 9 and 10 (Ki between 1 nM and 0.1 nM)) | A (A represents a pKi value ≥10 (Ki≤0.1 nM)) | A (A represents a pKi value ≥10 (Ki≤0.1 nM)) |  |  | 
2 | COC(=O)N1[C@@H]2CCC[C@H]1C[C@H](N(C)c1nc(Nc3cc(C)[nH]n3)cc(O[C@@H]3CCOC3)n1)C2 [Compound 23] |  |  | A (A represents a pKi value ≥10 (Ki≤0.1 nM)) |  | 10 to 31.6 | 0.1 to 1 | 0.1 to 1
3 | CCS(=O)(=O)N1[C@@H]2CCC[C@H]1C[C@H](N(C)c1nc(CO[C@@H]3CCOC3)c(F)c(Nc3cc(C)[nH]n3)n1)C2 [Compound 43, N2-((1R,3s,5S)-9-(ethylsulfonyl)-9-azabicyclo[3.3.1]nonan-3-yl)-5-fluoro-N2-methyl-N4-(5-methyl-1H-pyrazol-3-yl)-6-((((R)-tetrahydrofuran-3-yl)oxy)methyl)pyrimidine-2,4-diamine] | A (A represents a pIC50 value ≥8.0) | B (B represents a pKi value between 9 and 10 (Ki between 1 nM and 0.1 nM)) | A (A represents a pKi value ≥10 (Ki≤0.1 nM)) | B (B represents a pKi value between 9 and 10 (Ki between 1 nM and 0.1 nM)) |  |  | 
4 | CCS(=O)(=O)N1[C@@H]2CCC[C@H]1C[C@H](N(C)c1nc(CO[C@H]3CCOC3)c(F)c(Nc3cc(C)[nH]n3)n1)C2 [Compound 42, N2-((1R,3s,5S)-9-(ethylsulfonyl)-9-azabicyclo[3.3.1]nonan-3-yl)-5-fluoro-N2-methyl-N4-(5-methyl-1H-pyrazol-3-yl)-6-((((S)-tetrahydrofuran-3-yl)oxy)methyl)pyrimidine-2,4-diamine] | A (A represents a pIC50 value ≥8.0) | B (B represents a pKi value between 9 and 10 (Ki between 1 nM and 0.1 nM)) | A (A represents a pKi value ≥10 (Ki≤0.1 nM)) | B (B represents a pKi value between 9 and 10 (Ki between 1 nM and 0.1 nM)) |  |  | 
5 | CCS(=O)(=O)N1[C@@H]2CCC[C@H]1C[C@H](N(C)c1nc(Nc3cc(C)[nH]n3)cc(C3CCCO3)n1)C2 (stereo partly drawn) [Compound 8, N^2-((1R,3s,5S)-9-(ethylsulfonyl)-9-azabicyclo[3.3.1]nonan-3-yl)-N2-methyl-N4-(5-methyl-1H-pyrazol-3-yl)-6-(tetrahydrofuran-2-yl)pyrimidine-2,4-diamine] | A (A represents a pIC50 value ≥8.0) | B (B represents a pKi value between 9 and 10 (Ki between 1 nM and 0.1 nM)) | A (A represents a pKi value ≥10 (Ki≤0.1 nM)) | A (A represents a pKi value ≥10 (Ki≤0.1 nM)) |  |  | 
